System: MGP
Test: MGP gene expression in chondrocyte cells treated with trans form of MK7
Format: cell-based
Conditions: Chondrocyte cells treated with 0.01% (w/w) trans form of MK7; mRNA encoding MGP, relative to control conditions
Protocol: Example 2—The role of the trans form of MK7 in expression of MGP was measured as compared to control samples. Chondrocyte cells were treated with 0.01% (w/w) trans form of vitamin MK7 and results were reported as fold change in gene expression relative to control conditions.
MGP expression was elevated by 21% in the presence of trans form of MK7 as compared to the control samples as can be concluded from FIG. 2. […] MGP gene expression found to actively be regulated in the presence of trans form of MK7.

CC(C)=CCC/C(C)=C/CC/C(C)=C/CC/C(C)=C/CC/C(C)=C/CC/C(C)=C/CC/C(C)=C/CC1=C(C)C(=O)c2ccccc2C1=O [trans form of MK7, all-trans form of Menaquinone-7]
MGP expression elevated as compared to the control samples: 21%

From patent US20220249401A1, “DIETARY SUPPLEMENT FORMULATED BASED ON ALL-TRANS FORM OF MENAQUINONE-7” (NUTRIOMICS LIMITED, priority 2021, published 2022)
